row,SMILES,melting point
1,"CC1(C)CCSc2c(CC#Cc3ccc(C(=O)O)c(O)c3)cccc21 [Example 6, 2-Hydroxy-4-[3-(4,4-dimethylthiochroman-8-yl)prop-1-ynyl]benzoic Acid]",190 to 191 °C
2,"CC1(C)CCSc2cccc(C(O)C#Cc3ccc(C(=O)O)cc3)c21 (stereo not shown) [Example 11, 4-[3-(4,4-Dimethylthiochroman-5-yl)-3-hydroxyprop-1-ynyl]benzoic Acid]",198 °C
3,"COCOc1c(C(O)C#Cc2ccc(C(=O)O)cc2)cc(C(C)(C)C)cc1C(C)(C)C (stereo not shown) [Example 14, 4-[3-(3,5-Di-tert-butyl-2-(methoxymethoxy)phenyl)-3-hydroxyprop-1-ynyl]benzoic Acid]",197 °C
4,"COc1c(CC#Cc2ccc(C(=O)O)cc2)cc(C(C)(C)C)cc1C(C)(C)C [Example 19, 4-[3-(3,5-Di-tert-butyl-2-methoxyphenyl)prop-1-ynyl]benzoic Acid]",237 to 239 °C
5,"COc1c(C(C#Cc2ccc(C(=O)O)cc2)OC)cc(C(C)(C)C)cc1C(C)(C)C (stereo not shown) [Example 25, 4-[3-(3,5-Di-tert-butyl-2-methoxyphenyl)-3-methoxyprop-1-ynyl]benzoic Acid]",162 to 164 °C
6,"CCOC(=O)c1ccc(C#CCc2cc(C(C)(C)C)cc(C(C)(C)C)c2O)cc1 [Example 16, Ethyl 4-[3-(3,5-di-tert-butyl-2-hydroxyphenyl)prop-1-ynyl]benzoate]",113 to 115 °C

# More lines, now with the values ahead:
row,melting point,SMILES
1,208 to 209 °C,"COc1c(C(O)C#Cc2ccc(C(=O)O)cc2)cc(C(C)(C)C)cc1C(C)(C)C (stereo not shown) [Example 18, 4-[3-(3,5-Di-tert-butyl-2-methoxyphenyl)-3-hydroxyprop-1-ynyl]benzoic Acid]"
2,229 to 231 °C,"COc1c(CC#Cc2ccc(C(=O)O)cc2)cc(-c2ccccc2)cc1C(C)(C)C [Example 31, 4-[3-(5-tert-Butyl-4-methoxybiphenyl-3-yl)prop-1-ynyl]benzoic Acid]"
3,250 °C,CC1(C)CCC(C)(C)c2c(C(O)C#Cc3ccc(C(=O)O)cc3)cc(-c3ccccc3)cc21 (stereo not shown)
4,165 to 167 °C,"COc1c(C(O)C#Cc2ccc(C(=O)O)cc2)cc(-c2ccccc2)cc1C(C)(C)C (stereo not shown) [Example 23, 4-[3-(5-tert-Butyl-4-methoxybiphenyl-3-yl)-3-hydroxyprop-1-ynyl]benzoic Acid]"
